Source: US20230114728A1 (Venatorx Pharmaceuticals, Inc., priority 2019, published 2023)
In brackets after ≈: the same amount, converted by molar mass.

Tests used:
N. gonorrhoeae WHO L = experiment: Liquid broth MIC in Fastidious broth; assay type: cell-based; conditions: Neisseria gonorrhoeae; N. gonorrhoeae strain WHO L; Fastidious broth; read-out: Minimum Inhibitory Concentration, N. gonorrhoeae WHO L
Method in brief: (§1)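 Colonies were swabbed from chocolate agar after 24 h growth and standardised by optical density at 600 nm. Compounds were serially diluted twofold in Fastidious broth, and bacteria added to give 5×10^5 CFU/mL. After about 24 h at 36 °C in 5% CO2, the lowest concentration allowing under 10% growth was taken as MIC.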

N. gonorrhoeae WHO Q = experiment: Liquid broth MIC in Fastidious broth; assay type: cell-based; conditions: Neisseria gonorrhoeae, read-out: Minimum Inhibitory Concentration, N. gonorrhoeae WHO Q
Method in brief: as §1

N. gonorrhoeae WHO Z = experiment: Liquid broth MIC in Fastidious broth; assay type: cell-based; conditions: Neisseria gonorrhoeae, read-out: Minimum Inhibitory Concentration, N. gonorrhoeae WHO Z
Method in brief: as §1

N. gonorrhoeae WHO K = experiment: Liquid broth MIC in Fastidious broth; assay type: cell-based; conditions: Neisseria gonorrhoeae, read-out: Minimum Inhibitory Concentration, N. gonorrhoeae WHO K
Method in brief: as §1

N. gonorrhoeae FA1090 = experiment: Liquid broth MIC in Fastidious broth; assay type: cell-based; conditions: Neisseria gonorrhoeae; N. gonorrhoeae strain FA1090; Fastidious broth; read-out: Minimum Inhibitory Concentration, N. gonorrhoeae FA1090
Method in brief: as §1

[1] = test system: N. gonorrhoeae ATCC 49226; experiment: Liquid broth MIC in Fastidious broth; assay type: cell-based; conditions: Neisseria gonorrhoeae, ATCC49226; N. gonorrhoeae strain ATCC 49226; Fastidious broth; read-out: Minimum Inhibitory Concentration, N. gonorrhoeae ATCC 49226
Method in brief: as §1

N. gonorrhoeae WHO G = experiment: Liquid broth MIC in Fastidious broth; assay type: cell-based; conditions: Neisseria gonorrhoeae; N. gonorrhoeae strain WHO G; Fastidious broth; read-out: Minimum Inhibitory Concentration, N. gonorrhoeae WHO G
Method in brief: as §1

N. gonorrhoeae H041 = experiment: Liquid broth MIC in Fastidious broth; assay type: cell-based; conditions: Neisseria gonorrhoeae, H041, read-out: Minimum Inhibitory Concentration, N. gonorrhoeae H041
Method in brief: as §1

E. coli K12 PBP3 = molecular target: T1, E. coli K12 PBP3 (Escherichia coli, UniProt P0AD68); experiment: biochemical; assay type: binding
T1 construct: made in house
Method in brief: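 A. baumannii PBP2 (2.5 μM) and PBP3 (0.2 μM) were run in 25 mM Tris pH 8.0 buffer with Tween 20; E. coli PBP3 (1.5 μM) and N. gonorrhoeae PBP2 ([…]) in 50 mM Hepes pH 8.0 buffer.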

T1 sequence (P0AD68 1-577): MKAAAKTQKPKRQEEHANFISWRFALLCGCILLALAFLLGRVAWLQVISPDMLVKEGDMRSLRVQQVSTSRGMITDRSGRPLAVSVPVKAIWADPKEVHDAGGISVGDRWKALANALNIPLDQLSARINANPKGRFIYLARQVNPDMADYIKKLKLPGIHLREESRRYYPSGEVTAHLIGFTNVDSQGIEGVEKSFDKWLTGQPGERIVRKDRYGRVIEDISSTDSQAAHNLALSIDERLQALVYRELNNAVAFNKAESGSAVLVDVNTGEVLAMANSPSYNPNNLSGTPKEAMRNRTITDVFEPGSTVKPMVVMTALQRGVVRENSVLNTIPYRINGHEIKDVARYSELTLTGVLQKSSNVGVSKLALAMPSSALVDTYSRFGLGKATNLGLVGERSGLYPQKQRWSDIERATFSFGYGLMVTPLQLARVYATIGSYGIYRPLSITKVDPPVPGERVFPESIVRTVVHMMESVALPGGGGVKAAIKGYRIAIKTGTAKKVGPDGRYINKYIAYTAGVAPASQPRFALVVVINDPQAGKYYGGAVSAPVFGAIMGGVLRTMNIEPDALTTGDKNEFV

Compound | MIC (N. gonorrhoeae WHO L) | MIC (N. gonorrhoeae WHO Q) | MIC (N. gonorrhoeae WHO Z) | MIC (N. gonorrhoeae WHO K) | MIC (N. gonorrhoeae FA1090) | MIC [1] | MIC (N. gonorrhoeae WHO G) | MIC (N. gonorrhoeae H041) | EC50 (E. coli K12 PBP3)
NCCN1CCN(C(=O)N[C@@H](C(=O)N[C@H]2Cc3ccc(F)c(C(=O)O)c3OB2O)c2c(F)cc(O)cc2F)C(=O)C1=O (single isomer, unassigned) [Example 127] | > 64 µg/mL | > 64 µg/mL | > 64 µg/mL | > 64 µg/mL | 4 to 8 µg/mL (≈ 6.74 to 13.5 µM) | 16 to 32 µg/mL (≈ 27 to 53.9 µM) | 16 to 32 µg/mL (≈ 27 to 53.9 µM) | > 64 µg/mL | < 30 µM
NS(=O)(=O)c1cc(O)cc(C(NC(=O)N2CCN(Cc3c(F)cc(O)c(O)c3Cl)C(=O)C2=O)C(=O)N[C@H]2Cc3cccc(C(=O)O)c3OB2O)c1 (stereo partly drawn) [Example 132, (3R)-3-(2-(4-(2-chloro-6-fluoro-3,4-dihydroxybenzyl)-2,3-dioxopiperazine-1-carboxamido)-2-(3-hydroxy-5-sulfamoylphenyl)acetamido)-2-hydroxy-3,4-dihydro-2H-benzo[e][1,2]oxaborinine-8-carboxylic acid] | > 64 µg/mL | > 64 µg/mL | > 64 µg/mL | > 64 µg/mL | 16 to 32 µg/mL (≈ 21.3 to 42.7 µM) | > 64 µg/mL | > 64 µg/mL | > 64 µg/mL | 30 to 500 µM
CCN1CCN(C(=O)NC(C(=O)N[C@H]2Cc3cccc(C(=O)O)c3OB2O)c2cc(F)c(O)cc2Cl)C(=O)C1=O (stereo partly drawn) [Example 103, (3R)-3-(2-(2-chloro-5-fluoro-4-hydroxyphenyl)-2-(4-ethyl-2,3-dioxopiperazine-1-carboxamido)acetamido)-2-hydroxy-3,4-dihydro-2H-benzo[e][1,2]oxaborinine-8-carboxylic acid] | > 64 µg/mL | 16 to 32 µg/mL (≈ 27.7 to 55.5 µM) | 16 to 32 µg/mL (≈ 27.7 to 55.5 µM) | 16 to 32 µg/mL (≈ 27.7 to 55.5 µM) | 0.25 to 0.5 µg/mL (≈ 0.433 to 0.867 µM) | 16 to 32 µg/mL (≈ 27.7 to 55.5 µM) | 1 to 2 µg/mL (≈ 1.73 to 3.47 µM) | 16 to 32 µg/mL (≈ 27.7 to 55.5 µM) | < 30 µM
CCN1CCN(C(=O)N[C@H](C(=O)N[C@H]2Cc3cccc(C(=O)O)c3OB2O)c2ccc(C(=O)O)cc2Cl)C(=O)C1=O (single isomer, unassigned) [Example 152] | > 64 µg/mL | 16 to 32 µg/mL (≈ 27.3 to 54.5 µM) | 4 to 8 µg/mL (≈ 6.82 to 13.6 µM) | 16 to 32 µg/mL (≈ 27.3 to 54.5 µM) | 1 to 2 µg/mL (≈ 1.7 to 3.41 µM) | 16 to 32 µg/mL (≈ 27.3 to 54.5 µM) | 4 to 8 µg/mL (≈ 6.82 to 13.6 µM) | 16 to 32 µg/mL (≈ 27.3 to 54.5 µM) | 30 to 500 µM
NCCN1CCN(C(=O)N[C@@H](C(=O)N[C@H]2Cc3cccc(C(=O)O)c3OB2O)c2c(F)cc(O)cc2F)C(=O)C1=O (single isomer, unassigned) [Example 111] | > 64 µg/mL | > 64 µg/mL | > 64 µg/mL | > 64 µg/mL | 1 to 2 µg/mL (≈ 1.74 to 3.48 µM) | 16 to 32 µg/mL (≈ 27.8 to 55.6 µM) | 4 to 8 µg/mL (≈ 6.95 to 13.9 µM) | > 64 µg/mL | < 30 µM
NCCCN1CCN(C(=O)N[C@H](C(=O)N[C@H]2Cc3cccc(C(=O)O)c3OB2O)c2cccc(NS(N)(=O)=O)c2)C(=O)C1=O [Example 118, (R)-3-((S)-2-(4-(3-aminopropyl)-2,3-dioxopiperazine-1-carboxamido)-2-(3-(sulfamoylamino)phenyl)acetamido)-2-hydroxy-3,4-dihydro-2H-benzo[e][1,2]oxaborinine-8-carboxylic acid] | > 64 µg/mL | > 64 µg/mL | > 64 µg/mL | > 64 µg/mL | 4 to 8 µg/mL (≈ 6.33 to 12.7 µM) | > 64 µg/mL | > 64 µg/mL | > 64 µg/mL | 30 to 500 µM
NC1(CN2CCN(C(=O)N[C@@H](C(=O)N[C@H]3Cc4ccc(F)c(C(=O)O)c4OB3O)c3cc(F)c(O)c(O)c3Cl)C(=O)C2=O)CC1 (single isomer, unassigned) [Example 133] | > 64 µg/mL | > 64 µg/mL | > 64 µg/mL | > 64 µg/mL | 16 to 32 µg/mL (≈ 24.5 to 49.1 µM) | > 64 µg/mL | 16 to 32 µg/mL (≈ 24.5 to 49.1 µM) | > 64 µg/mL | 30 to 500 µM
NCCN1CCN(C(=O)N[C@H](C(=O)N[C@H]2Cc3cccc(C(=O)O)c3OB2O)c2cc(Cl)c(O)c(Cl)c2)C(=O)C1=O (single isomer, unassigned) [Example 165] | > 64 µg/mL | > 64 µg/mL | > 64 µg/mL | > 64 µg/mL | 4 to 8 µg/mL (≈ 6.58 to 13.2 µM) | > 64 µg/mL | > 64 µg/mL | > 64 µg/mL | 30 to 500 µM
CCN1CCN(C(=O)NC(C(=O)N[C@H]2Cc3cccc(C(=O)O)c3OB2O)c2ccc(C(=O)O)cc2F)C(=O)C1=O (stereo partly drawn) [Example 145, (3R)-3-(2-(4-carboxy-2-fluorophenyl)-2-(4-ethyl-2,3-dioxopiperazine-1-carboxamido)acetamido)-2-hydroxy-3,4-dihydro-2H-benzo[e][1,2]oxaborinine-8-carboxylic acid] | 16 to 32 µg/mL (≈ 28.1 to 56.1 µM) | 4 to 8 µg/mL (≈ 7.01 to 14 µM) | 4 to 8 µg/mL (≈ 7.01 to 14 µM) | 4 to 8 µg/mL (≈ 7.01 to 14 µM) | < 0.125 µg/mL | 1 to 2 µg/mL (≈ 1.75 to 3.51 µM) | 1 to 2 µg/mL (≈ 1.75 to 3.51 µM) | 4 to 8 µg/mL (≈ 7.01 to 14 µM) | < 30 µM
NCCN1CCN(C(=O)N[C@H](C(=O)N[C@H]2Cc3cccc(C(=O)O)c3OB2O)c2cccc(NS(N)(=O)=O)c2)C(=O)C1=O (single isomer, unassigned) [Example 115] | > 64 µg/mL | > 64 µg/mL | > 64 µg/mL | > 64 µg/mL | 4 to 8 µg/mL (≈ 6.48 to 13 µM) | > 64 µg/mL | > 64 µg/mL | > 64 µg/mL | 30 to 500 µM
CCN1CCN(C(=O)NC(C(=O)N[C@H]2Cc3cccc(C(=O)O)c3OB2O)c2c(F)cc(N)cc2F)C(=O)C1=O (stereo partly drawn) [Example 181, (3R)-3-(2-(4-amino-2,6-difluorophenyl)-2-(4-ethyl-2,3-dioxopiperazine-1-carboxamido)acetamido)-2-hydroxy-3,4-dihydro-2H-benzo[e][1,2]oxaborinine-8-carboxylic acid] | 16 to 32 µg/mL (≈ 28.6 to 57.2 µM) | 16 to 32 µg/mL (≈ 28.6 to 57.2 µM) | 16 to 32 µg/mL (≈ 28.6 to 57.2 µM) | 16 to 32 µg/mL (≈ 28.6 to 57.2 µM) | 0.25 to 0.5 µg/mL (≈ 0.447 to 0.894 µM) | 4 to 8 µg/mL (≈ 7.15 to 14.3 µM) | 1 to 2 µg/mL (≈ 1.79 to 3.58 µM) | > 64 µg/mL | < 30 µM
CCN1CCN(C(=O)N[C@H](C(=O)N[C@H]2Cc3cccc(C(=O)O)c3OB2O)c2cc(F)c(C(=O)O)cc2Cl)C(=O)C1=O (single isomer, unassigned) [Example 149] | > 64 µg/mL | > 64 µg/mL | 16 to 32 µg/mL (≈ 26.5 to 52.9 µM) | > 64 µg/mL | 4 to 8 µg/mL (≈ 6.61 to 13.2 µM) | > 64 µg/mL | 16 to 32 µg/mL (≈ 26.5 to 52.9 µM) | > 64 µg/mL | 30 to 500 µM
CCN1CCN(C(=O)N[C@H](C(=O)N[C@H]2Cc3cccc(C(=O)O)c3OB2O)c2ccc(C(=O)O)cc2O)C(=O)C1=O (single isomer, unassigned) [Example 143] | > 64 µg/mL | > 64 µg/mL | 16 to 32 µg/mL (≈ 28.2 to 56.3 µM) | > 64 µg/mL | 1 to 2 µg/mL (≈ 1.76 to 3.52 µM) | 16 to 32 µg/mL (≈ 28.2 to 56.3 µM) | 4 to 8 µg/mL (≈ 7.04 to 14.1 µM) | > 64 µg/mL | < 30 µM
CCN1CCN(C(=O)N[C@@H](C(=O)N[C@H]2Cc3cccc(C(=O)O)c3OB2O)c2ccc(C(=O)O)c(F)c2F)C(=O)C1=O (single isomer, unassigned) [Example 140] | 1 to 2 µg/mL (≈ 1.7 to 3.4 µM) | 1 to 2 µg/mL (≈ 1.7 to 3.4 µM) | 0.25 to 0.5 µg/mL (≈ 0.425 to 0.85 µM) | 1 to 2 µg/mL (≈ 1.7 to 3.4 µM) | < 0.125 µg/mL | 0.25 to 0.5 µg/mL (≈ 0.425 to 0.85 µM) | 0.25 to 0.5 µg/mL (≈ 0.425 to 0.85 µM) | 1 to 2 µg/mL (≈ 1.7 to 3.4 µM) | < 30 µM
